One series deals with T1, RlmCDs (Streptococcus pneumoniae, UniProt Q97R12).
T1 construct: gene SP_1029; core region residues 1-454; 8xHis-SUMO tag cut by ULP1; E. coli BL21 (Gold)
Nature of the series: in-vitro methyltransferase assay, 3H counting on RNA. To be noted: labelled compound (3H-SAM); 18-mer rRNA-h35, 3 mM MgCl2, pH 8.0, 37 °C, 2 h. The format is biochemical.

Another series has as its target RlmCDs E443Q (Streptococcus pneumoniae, UniProt Q97R12 1-454, E443Q). Nature of the series: crystal structure (2.85 A); SAH (SAM added); only the 5-bp stem modelled, loop not visible; Crystallization: 8 mg/ml protein, protein:SAM:RNA 1:2:1.2, 0.1 M ammonium sulfate, 0.01 M MgCl2, 0.05 M MES, 20% w/v PEG8000, pH 5.6; protein storage buffer 20. The note with it: protein: recombinant; tags: N-terminal 8xHis-SUMO, cleaved with ULP1; hairpin.

These results are taken from PMC5614603, “Structural insights into substrate selectivity of ribosomal RNA methyltransferase RlmCD” (PLoS ONE, 2017).

For `C[S+](CC[C@H](N)C(=O)O)C[C@H]1O[C@@H](n2cnc3c(N)ncnc32)[C@H](O)[C@@H]1O` (some centres unmarked) [SAM], at RlmCDs, the “in-vitro methyltransferase assay, 3H counting on RNA” value was “both full-length RlmCD and its shorter construct RlmCDs exhibit strong MTase activity”.

B1: m5U747 rRNA-h35 (18-mer, 23S rRNA helix 35) (structured_RNA)
RNA: GGCACGUUGAAAAGUGCC
modifications: m5U at position 8 (U747)
On to B1, for which, in the series with RlmCDs E443Q, the binding result is “binds”.
